Experiment in all cases: relative viability (nuclei count vs DMSO), 5 days (fraction); higher = more cells survive
Compound in the test “Doxorubicin + Alpelisib”: COc1cccc2c1C(=O)c1c(O)c3c(c(O)c1C2=O)C[C@@](O)(C(=O)CO)C[C@@H]3O[C@H]1C[C@H](N)[C@H](O)[C@H](C)O1 [Doxorubicin] + Cc1nc(NC(=O)N2CCC[C@H]2C(N)=O)sc1-c1ccnc(C(C)(C)C(F)(F)F)c1 [Alpelisib] (partner 2 µM)
The procedure, abridged:
(§1)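 Medians of duplicate plates are given as relative viability. That measure is the nuclei count in treated wells divided by the count in vehicle wells. Counts were taken on 4× images of lung cancer cell lines in 1536-well plates, 5 days after pin-tool dosing the day after seeding with one drug alone or a fixed anchor-drug dose plus five library-drug doses (not always all listed) in √10 steps.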

Compound in the test “BAY61-3606 + OSI-027”: COC1=C(C=C(C=C1)C2=CC3=NC=CN3C(=N2)NC4=C(C=CC=N4)C(=O)N)OC [BAY61-3606] + COc1cccc2cc(-c3nc([C@H]4CC[C@H](C(=O)O)CC4)n4ncnc(N)c34)[nH]c12 [OSI-027] (partner 0.5 µM)
The method in brief: as §1

Compound in the test “BAY61-3606 + Tozasertib”: COC1=C(C=C(C=C1)C2=CC3=NC=CN3C(=N2)NC4=C(C=CC=N4)C(=O)N)OC [BAY61-3606] + Cc1cc(Nc2cc(N3CCN(C)CC3)nc(Sc3ccc(NC(=O)C4CC4)cc3)n2)n[nH]1 [Tozasertib] (partner 0.1 µM)
The method in brief: as §1

Compound in the test “BAY61-3606 + AZD7762”: COC1=C(C=C(C=C1)C2=CC3=NC=CN3C(=N2)NC4=C(C=CC=N4)C(=O)N)OC [BAY61-3606] + NC(=O)Nc1cc(-c2cccc(F)c2)sc1C(=O)N[C@H]1CCCNC1 [AZD7762] (partner 0.2 µM)
The method in brief: as §1

The results in this text go back to the supplement of paper PMC10307832.

On to PC-14, for which the relative viability with Doxorubicin + Alpelisib (first compound 0.001 µM) amounted to 0.892; with Doxorubicin + Alpelisib (first compound 0.003162 µM) it was 1.01; in the test with Doxorubicin + Alpelisib (first compound 0.01 µM), 0.963; with Doxorubicin + Alpelisib (first compound 0.03162 µM), 0.986; with Doxorubicin + Alpelisib (first compound 0.1 µM), 1.01; in the test with BAY61-3606 + OSI-027 (first compound 0.02 µM), 0.786. Also, the relative viability with BAY61-3606 + OSI-027 (first compound 0.06325 µM) is 0.787; with BAY61-3606 + OSI-027 (first compound 0.2 µM), 0.746; in the test with BAY61-3606 + OSI-027 (first compound 0.6325 µM) it was 1.24; in the test with BAY61-3606 + OSI-027 (first compound 2 µM) it was 0.522; in the test with BAY61-3606 + Tozasertib (first compound 0.02 µM), 0.597; with BAY61-3606 + Tozasertib (first compound 0.06325 µM) it was 0.637. Moreover, the relative viability with BAY61-3606 + Tozasertib (first compound 0.2 µM) worked out at 0.5; with BAY61-3606 + Tozasertib (first compound 0.6325 µM), 0.568; with BAY61-3606 + Tozasertib (first compound 2 µM), 0.174; with BAY61-3606 + AZD7762 (first compound 0.02 µM), 0.418; in the test with BAY61-3606 + AZD7762 (first compound 0.06325 µM), 0.268; with BAY61-3606 + AZD7762 (first compound 0.2 µM), 0.35. Also, the relative viability in the test with BAY61-3606 + AZD7762 (first compound 0.6325 µM) worked out at 0.32; with BAY61-3606 + AZD7762 (first compound 2 µM) it was 0.342.
On to NCI-H1651, for which the relative viability is 0.902 with Doxorubicin + Alpelisib (first compound 0.001 µM); 0.996 with Doxorubicin + Alpelisib (first compound 0.003162 µM); 0.875 with Doxorubicin + Alpelisib (first compound 0.01 µM); 0.424 with Doxorubicin + Alpelisib (first compound 0.03162 µM); 0.201 in the test with Doxorubicin + Alpelisib (first compound 0.1 µM); 0.702 with BAY61-3606 + OSI-027 (first compound 0.02 µM). Moreover, the relative viability with BAY61-3606 + OSI-027 (first compound 0.06325 µM) amounted to 0.627; in the test with BAY61-3606 + OSI-027 (first compound 0.2 µM), 0.664; with BAY61-3606 + OSI-027 (first compound 0.6325 µM), 0.637; with BAY61-3606 + OSI-027 (first compound 2 µM) it was 0.499; in the test with BAY61-3606 + Tozasertib (first compound 0.02 µM) it was 0.726; with BAY61-3606 + Tozasertib (first compound 0.06325 µM), 0.488. Besides, the relative viability with BAY61-3606 + Tozasertib (first compound 0.2 µM) amounted to 0.503; in the test with BAY61-3606 + Tozasertib (first compound 0.6325 µM), 0.55; with BAY61-3606 + Tozasertib (first compound 2 µM), 0.356; with BAY61-3606 + AZD7762 (first compound 0.02 µM) it was 0.517; in the test with BAY61-3606 + AZD7762 (first compound 0.06325 µM), 0.454; in the test with BAY61-3606 + AZD7762 (first compound 0.2 µM), 0.463. Also, the relative viability in the test with BAY61-3606 + AZD7762 (first compound 0.6325 µM) amounted to 0.52; with BAY61-3606 + AZD7762 (first compound 2 µM), 0.498.
Take NCI-H2087: the relative viability with Doxorubicin + Alpelisib (first compound 0.001 µM) was 1.2; in the test with Doxorubicin + Alpelisib (first compound 0.003162 µM), 1.15; in the test with Doxorubicin + Alpelisib (first compound 0.01 µM), 1.19; in the test with Doxorubicin + Alpelisib (first compound 0.03162 µM), 0.984; in the test with Doxorubicin + Alpelisib (first compound 0.1 µM), 0.862; with BAY61-3606 + OSI-027 (first compound 0.02 µM), 0.47. For the same cell line, the relative viability with BAY61-3606 + OSI-027 (first compound 0.06325 µM) was determined as 0.577; with BAY61-3606 + OSI-027 (first compound 0.2 µM) it was 0.557; in the test with BAY61-3606 + OSI-027 (first compound 0.6325 µM) it was 0.555; in the test with BAY61-3606 + OSI-027 (first compound 2 µM), 0.417; with BAY61-3606 + Tozasertib (first compound 0.02 µM), 0.223; with BAY61-3606 + Tozasertib (first compound 0.06325 µM) it was 0.253. In addition, the relative viability in the test with BAY61-3606 + Tozasertib (first compound 0.2 µM) came out at 0.166; with BAY61-3606 + Tozasertib (first compound 0.6325 µM) it was 0.176; with BAY61-3606 + Tozasertib (first compound 2 µM) it was 0.157; with BAY61-3606 + AZD7762 (first compound 0.02 µM), 1.31; in the test with BAY61-3606 + AZD7762 (first compound 0.06325 µM) it was 1.43; with BAY61-3606 + AZD7762 (first compound 0.2 µM), 1.35. In addition, the relative viability in the test with BAY61-3606 + AZD7762 (first compound 0.6325 µM) is 1.23; in the test with BAY61-3606 + AZD7762 (first compound 2 µM), 0.959.
For the cell line NCI-H1944, the relative viability with Doxorubicin + Alpelisib (first compound 0.001 µM) was found to be 0.8; in the test with Doxorubicin + Alpelisib (first compound 0.003162 µM), 0.836; in the test with Doxorubicin + Alpelisib (first compound 0.01 µM), 0.851; with Doxorubicin + Alpelisib (first compound 0.03162 µM) it was 0.83; in the test with Doxorubicin + Alpelisib (first compound 0.1 µM), 0.885; with BAY61-3606 + OSI-027 (first compound 0.02 µM), 0.403. Further, the relative viability is 0.377 with BAY61-3606 + OSI-027 (first compound 0.06325 µM); 0.363 with BAY61-3606 + OSI-027 (first compound 0.2 µM); 0.373 with BAY61-3606 + OSI-027 (first compound 0.6325 µM); 0.352 in the test with BAY61-3606 + OSI-027 (first compound 2 µM); 0.256 with BAY61-3606 + Tozasertib (first compound 0.02 µM); 0.224 with BAY61-3606 + Tozasertib (first compound 0.06325 µM). Also, the relative viability amounted to 0.239 in the test with BAY61-3606 + Tozasertib (first compound 0.2 µM); 0.249 with BAY61-3606 + Tozasertib (first compound 0.6325 µM); 0.215 with BAY61-3606 + Tozasertib (first compound 2 µM); 0.477 with BAY61-3606 + AZD7762 (first compound 0.02 µM); 0.533 with BAY61-3606 + AZD7762 (first compound 0.06325 µM); 0.635 in the test with BAY61-3606 + AZD7762 (first compound 0.2 µM). The relative viability with BAY61-3606 + AZD7762 (first compound 0.6325 µM) was determined as 0.592; in the test with BAY61-3606 + AZD7762 (first compound 2 µM), 0.485.
LCLC-103H: the relative viability in the test with Doxorubicin + Alpelisib (first compound 0.001 µM) was found to be 0.917; with Doxorubicin + Alpelisib (first compound 0.003162 µM), 0.993; in the test with Doxorubicin + Alpelisib (first compound 0.01 µM) it was 0.981; with Doxorubicin + Alpelisib (first compound 0.03162 µM) it was 1.06; with Doxorubicin + Alpelisib (first compound 0.1 µM), 1.08; in the test with BAY61-3606 + OSI-027 (first compound 0.02 µM), 0.472. Moreover, the relative viability with BAY61-3606 + OSI-027 (first compound 0.06325 µM) stood at 0.434; with BAY61-3606 + OSI-027 (first compound 0.2 µM), 0.478; in the test with BAY61-3606 + OSI-027 (first compound 0.6325 µM) it was 0.425; with BAY61-3606 + OSI-027 (first compound 2 µM), 0.439; with BAY61-3606 + Tozasertib (first compound 0.02 µM), 0.459; with BAY61-3606 + Tozasertib (first compound 0.06325 µM), 0.335. Further, the relative viability is 0.484 with BAY61-3606 + Tozasertib (first compound 0.2 µM); 0.352 with BAY61-3606 + Tozasertib (first compound 0.6325 µM); 0.213 with BAY61-3606 + Tozasertib (first compound 2 µM); 0.762 with BAY61-3606 + AZD7762 (first compound 0.02 µM); 0.704 in the test with BAY61-3606 + AZD7762 (first compound 0.06325 µM); 0.836 with BAY61-3606 + AZD7762 (first compound 0.2 µM). The relative viability came out at 0.758 in the test with BAY61-3606 + AZD7762 (first compound 0.6325 µM) and 0.769 in the test with BAY61-3606 + AZD7762 (first compound 2 µM).
NCI-H1437: the relative viability with Doxorubicin + Alpelisib (first compound 0.001 µM) was 1.03; in the test with Doxorubicin + Alpelisib (first compound 0.003162 µM) it was 1; with Doxorubicin + Alpelisib (first compound 0.01 µM), 0.94; with Doxorubicin + Alpelisib (first compound 0.03162 µM) it was 0.611; with Doxorubicin + Alpelisib (first compound 0.1 µM) it was 0.257; in the test with BAY61-3606 + OSI-027 (first compound 0.02 µM), 0.941. In addition, the relative viability amounted to 0.924 with BAY61-3606 + OSI-027 (first compound 0.06325 µM); 0.921 in the test with BAY61-3606 + OSI-027 (first compound 0.2 µM); 0.936 with BAY61-3606 + OSI-027 (first compound 0.6325 µM); 0.784 with BAY61-3606 + OSI-027 (first compound 2 µM); 0.402 in the test with BAY61-3606 + Tozasertib (first compound 0.02 µM); 0.391 in the test with BAY61-3606 + Tozasertib (first compound 0.06325 µM). Besides, the relative viability in the test with BAY61-3606 + Tozasertib (first compound 0.2 µM) was found to be 0.428; with BAY61-3606 + Tozasertib (first compound 0.6325 µM) it was 0.416; with BAY61-3606 + Tozasertib (first compound 2 µM), 0.374; with BAY61-3606 + AZD7762 (first compound 0.02 µM), 1.14; with BAY61-3606 + AZD7762 (first compound 0.06325 µM), 1.08; in the test with BAY61-3606 + AZD7762 (first compound 0.2 µM), 1.17. Also, the relative viability with BAY61-3606 + AZD7762 (first compound 0.6325 µM) is 1.21; with BAY61-3606 + AZD7762 (first compound 2 µM) it was 1.12.
H3255: the relative viability stood at 0.698 in the test with Doxorubicin + Alpelisib (first compound 0.001 µM); 0.656 with Doxorubicin + Alpelisib (first compound 0.003162 µM); 0.562 in the test with Doxorubicin + Alpelisib (first compound 0.01 µM); 0.58 in the test with Doxorubicin + Alpelisib (first compound 0.03162 µM); 0.404 with Doxorubicin + Alpelisib (first compound 0.1 µM); 0.529 in the test with BAY61-3606 + OSI-027 (first compound 0.02 µM). Moreover, the relative viability with BAY61-3606 + OSI-027 (first compound 0.06325 µM) worked out at 0.549; in the test with BAY61-3606 + OSI-027 (first compound 0.2 µM) it was 0.642; in the test with BAY61-3606 + OSI-027 (first compound 0.6325 µM), 0.736; with BAY61-3606 + OSI-027 (first compound 2 µM), 0.546; in the test with BAY61-3606 + Tozasertib (first compound 0.02 µM), 0.6; with BAY61-3606 + Tozasertib (first compound 0.06325 µM), 0.64. Also, the relative viability with BAY61-3606 + Tozasertib (first compound 0.2 µM) was 0.54; with BAY61-3606 + Tozasertib (first compound 0.6325 µM) it was 0.649; with BAY61-3606 + Tozasertib (first compound 2 µM) it was 0.701; with BAY61-3606 + AZD7762 (first compound 0.02 µM) it was 0.941; with BAY61-3606 + AZD7762 (first compound 0.06325 µM), 0.775; in the test with BAY61-3606 + AZD7762 (first compound 0.2 µM), 1.03. The relative viability is 0.942 in the test with BAY61-3606 + AZD7762 (first compound 0.6325 µM) and 0.902 in the test with BAY61-3606 + AZD7762 (first compound 2 µM).
